Measured values as given in patent US11576913B2 (priority 2018, dated 2023).
Entries after “also recorded” stand apart in the source; their conditions may differ.

Key:
[1] = test system: healthy, non-dependent, recreational sedative users; assay: Human abuse potential study, Drug Liking VAS; type: in vivo; conditions: for Drug Liking VAS - EMAX LSMean: N = 50, 100 point bipolar scale
Procedure: This study was designed as a randomized, single-dose, double-blinded, double dummy, crossover study. The study population was healthy, nondependent recreational polydrug users with a history of Central Nervous System (CNS) depressant use.
Subjects were screened no more than 28 days before check-in of period 1. Study drug was administered in each period according to the study randomization schedule. During Qualification, there was a minimum 24 hour washout period between each study drug administration. During the Treatment phase, there was a minimum 48-hour washout period between each study drug administration. Subjects were confined to the unit the day prior to, and for at least approximately 24 hours following, study drug administration during each period. If subjects were discharged between treatment periods, subjects returned to the unit the day prior to dosing.
The Qualification Phase was designed to ensure that polydrug abusing subjects with self-reported recreational CNS depressant/sedative drug experience were able to tolerate and discriminate between orally administered triazolam tablets and placebo as well as to report positive subjective effects of the drug in a controlled laboratory setting. This phase was also used to exclude “placebo responders”, i.e., subjects who report subjective effects of placebo. This phase also helped familiarize subjects with, and trained them in the use of, various scales and questionnaires that measure subjective effects.
The comparators in an abuse potential study are typically controlled substances from the same pharmacologic class as the investigational drug. However, Compound (1C) is a novel drug class for which no controlled substances/drugs of abuse are available for comparison. […] There was no evidence of other effects of interest to abusers, such as perceptual disturbances or stimulation. […] Placebo control was used to establish the frequency and magnitude of changes in clinical endpoints that may occur in the absence of active treatment as well as to minimize subject and investigator bias.
In all of the study phases, treatments were blinded to the greatest extent possible to reduce potential bias during data collection and evaluation of clinical endpoints. Because study subjects were recreational drug users and familiar with the effects of the drug substances being studied, the double-dummy technique was be used in the Treatment Phase to maintain blinding. Subjects received tablets orally in each treatment period. Placebo was matched in size and shape to each of the tablet types, and a method to blind subjects will be employed.
For each phase, subjects received treatments according to the randomization schema. During the Treatment Phase, subjects were be randomized to 1 of sequences in a 6×6 Williams square crossover design.
Compound (1C) was administered orally in an immediate release tablet comprising the pharmaceutically acceptable excipients croscarmellose sodium (FMC Health and Nutrition, Philadelphia, Pa.), hydroxypropylcellulose (Ashland Inc., Covington, Ky.), microcrystalline cellulose (Dupont, Chicago, Ill.), mannitol (SPI Pharma, Wilmington, Del.), magnesium stearate (PlusPharma Inc., Vista, Calif.), and sodium lauryl sulfate (BASF Corp, Upper St. Clair, Pa.). […] Placebo tablets matching the Compound (1C) tablets were orally administered in the same way. The placebo tablets comprised the above-described pharmaceutically acceptable excipients but with no Compound (1C). Triazolam was administered at a dose of 0.5 or 1 mg. Trial endpoints are provided below.
Peak Maximum Effect (Emax) for Drug Liking (“at this moment”) visual analog scale (“VAS”), was measured by study participants providing a score on a 100 point bipolar scale with 100 as strong liking, 50 as the neutral point of neither liking nor disliking, and 0 as strong disliking. […]

[2] = test system: healthy, non-dependent, recreational sedative users; assay: Human abuse potential study, adverse events and tolerability; type: in vivo; conditions: for Amnesia / Ataxia / Diplopia / Dizziness / Euphoric mood / Headache / Hiccups / Nausea / Somnolence / Vision blurred: N = 50
Procedure: Adverse events were coded to MedDRA terms. Data for AEs were analyzed using the treatment-emergent signs and symptoms (TESS) philosophy. Treatment-emergent signs and symptoms are defined as AEs that: • Emerge during treatment, having been absent at pretreatment; or • Reemerge during treatment, having been present at pretreatment but stopped prior to treatment; or • Worsen in intensity during treatment relative to the pretreatment state, when the AE is continuous.
Subjects were counted only once in the incidence count for a specific MedDRA Preferred Term, although a MedDRA Preferred Term might be reported more than once for a particular subject. Separate summaries will be provided for Treatment-emergent AEs (“TEAEs”) by maximum intensity (mild, moderate, severe) and relationship (yes, no) to study drug. A TEAE was considered related to study drug if the investigator reported the event to be “definitely, probably, possibly, or unlikely” related to treatment on the CRF.

With O=C(O)c1nc2ccccc2n([C@H]2C[C@H]3CCC[C@@H](C2)N3C2CC3CCCC(C3)C2)c1=O (stereo partly drawn) [Compound (1C)] the “Drug Liking VAS - EMAX Diff from Placebo LSMean” value (from here on “Drug Liking VAS - EMAX Diff”) ([1]; 1 mg) was 3.0 points, the “Drug liking compared with Triazolam 0.5 and 1 mg” value ([1]; 1 mg) was “statistically smaller; also recorded: statistically less; also recorded: (1C) 1 mg was significantly lower than” and the “Drug liking compared with placebo (words)” value ([1]; 1 mg) was “not significantly greater than placebo; also recorded: placebo was similar to placebo (upper bound”. For the same molecule, the “Drug Liking VAS - EMAX LSMean” value ([1]; 1 mg single oral dose) was 58.1, the “Drug Liking VAS - EMAX Diff” value ([1]; 6 mg) was 17.7 points and the “Drug liking compared with Triazolam 0.5 and 1 mg” value ([1]; 6 mg) was “not statistically different”. The “Drug liking compared with placebo (words)” value ([1]; 6 mg) was “greater drug liking than placebo; also recorded: significantly greater”, the “Drug Liking VAS - EMAX LSMean” value ([1]; 6 mg single oral dose) was 72.82 and the “Drug Liking VAS - EMAX Diff” value ([1]; 10 mg) was 21.2 points. The “Drug liking compared with Triazolam 0.5 and 1 mg” value ([1]; 10 mg) was “not statistically different”, the “Drug liking compared with placebo (words)” value ([1]; 10 mg) was “greater drug liking than placebo; also recorded: significantly greater” and the “Drug Liking VAS - EMAX LSMean” value ([1]; 10 mg single oral dose) was 76.4. The “Drug Liking VAS - EMAX, Triazolam 0.5 mg - Cmpd. (1C) LSMean” value (“Drug Liking VAS - EMAX, Triazolam 0.5 mg” below) ([1]; Cmpd. (1C) 1 mg) was 17.4, the “Drug Liking VAS - EMAX, Triazolam 1 mg - Cmpd. (1C) LSMean” value (“Drug Liking VAS - EMAX, Triazolam 1 mg” below) ([1]; Cmpd. (1C) 1 mg) was 20.5 and the “Drug Liking VAS - EMAX, Triazolam 0.5 mg” value ([1]; Cmpd. (1C) 6 mg) was 2.7. The “Drug Liking VAS - EMAX, Triazolam 1 mg” value ([1]; Cmpd. (1C) 6 mg) was 5.8, the “Drug Liking VAS - EMAX, Triazolam 0.5 mg” value ([1]; Cmpd. (1C) 10 mg) was −0.8 and the “Drug Liking VAS - EMAX, Triazolam 1 mg” value ([1]; Cmpd. (1C) 10 mg) was 2.3. For the same molecule, the “AE profile compared with triazolam” value ([2]; 1 mg) was “more preferable AE profile than triazolam”, the Amnesia ([2]; 1 mg) was 0 n (%) and the Ataxia ([2]; 1 mg) was 1 (2) n (%). For the same molecule, the Diplopia ([2]; 1 mg) was 0 n (%), the Dizziness ([2]; 1 mg) was 2 (4) n (%) and the Euphoric mood ([2]; 1 mg) was 0 n (%). The Headache ([2]; 1 mg) was 5 (10) n (%), the Hiccups ([2]; 1 mg) was 0 n (%) and the Nausea ([2]; 1 mg) was 1 (2) n (%). For the same molecule, the Somnolence ([2]; 1 mg) was 20 (40) n (%), the Vision blurred ([2]; 1 mg) was 0 n (%) and the “AE profile compared with triazolam” value ([2]; 6 mg) was “AE profile than triazolam, and Compound (1C) at 6 and 10 mg doses had similar profiles as triazolam”. The “certain AE results (ataxia, hiccups, amnesia, diplopia) compared with triazolam at therapeutic doses” value ([2]; 6 mg (supratherapeutic dose)) was “superior to triazolam”, the Amnesia ([2]; 6 mg) was 0 n (%) and the Ataxia ([2]; 6 mg) was 7 (14) n (%). For the same molecule, the Diplopia ([2]; 6 mg) was 0 n (%), the Dizziness ([2]; 6 mg) was 3 (6) n (%) and the Euphoric mood ([2]; 6 mg) was 1 (2) n (%). For the same molecule, the Headache ([2]; 6 mg) was 2 (4) n (%), the Hiccups ([2]; 6 mg) was 0 n (%) and the Nausea ([2]; 6 mg) was 2 (4) n (%). The Somnolence ([2]; 6 mg) was 45 (90) n (%), the Vision blurred ([2]; 6 mg) was 2 (4) n (%) and the “AE profile compared with triazolam” value ([2]; 10 mg) was “AE profile than triazolam, and Compound (1C) at 6 and 10 mg doses had similar profiles as triazolam”. For the same molecule, the “certain AE results (ataxia, hiccups, amnesia, diplopia) compared with triazolam at therapeutic doses” value ([2]; 10 mg (supratherapeutic dose)) was “superior to triazolam”, the Amnesia ([2]; 10 mg) was 0 n (%) and the Ataxia ([2]; 10 mg) was 13 (26) n (%). For the same molecule, the Diplopia ([2]; 10 mg) was 2 (4) n (%), the Dizziness ([2]; 10 mg) was 5 (10) n (%) and the Euphoric mood ([2]; 10 mg) was 1 (2) n (%). For the same molecule, the Headache ([2]; 10 mg) was 2 (4) n (%), the Hiccups ([2]; 10 mg) was 0 n (%) and the Nausea ([2]; 10 mg) was 2 (4) n (%). For the same molecule, the Somnolence ([2]; 10 mg) was 47 (94) n (%), the Vision blurred ([2]; 10 mg) was 3 (6) n (%) and the “safety and tolerability” value ([2]; doses 1, 6 and 10 mg) was “well tolerated”.
